Usually IC50 stands for the concentration needed to halve the response being measured. The melting point is the temperature of the solid-liquid transition.

We go through 21 compounds from article PMC6154466, “Design, Synthesis, Molecular Docking Analysis, and Carbonic Anhydrase IX Inhibitory Evaluations of Novel N-Substituted-β-D-Glucosamine Derivatives that Incorporate Benzenesulfonamides” (Molecules : A Journal of Synthetic Chemistry and Natural …, 2017).

Series [1] deals with T1, Recombinant human carbonic anhydrase IX (Homo sapiens, UniProt Q16790).
T1 construct: purchased Sino Biological Inc, Beijing, China
The series is described as follows: hCA IX inhibition, 4-nitrophenyl acetate (4-NPA) esterase assay. The series is classed as biochemical. The following applies: mean ± standard error. Here is the method:
Carbonic anhydrases are able to catalyze the conversion 4-nitrophenyl acetate (4-NPA) to 4-nitrophenol. […] One × Assay buffer is composed of 15 mmol/L 4-(2-hydroxyethyl)-1-piperazineethanesulfonic acid (HEPES) (pH = 7.4), 0.01% tetraethylene glycol monododecyl ether (BRIJ) and 100 mmol/L NaCl. […] Then, 18 μL of enzyme solution was transferred into 384-well assay plates in triplicate. Stock solutions of the inhibitor (10 mmol/L) were prepared using DMSO as solvent, and then diluted 1:3 with DMSO. […] The normalized data were then fit to a sigmoidal dose-response curve using GraphPad Prism 5.0 software, La Jolla, CA, USA to obtain the IC50. Final enzyme concentration was 5 ng/μL.

Series [2] has as its system CA IX over intracellular CA I. The arrangement: method as in PMID 25254302. The following applies: cited from earlier work.
The subject of series [3] is CA IX over intracellular CA II. Set-up: method as in PMID 25254302. The following applies: cited from earlier work.

`Cc1ccc(S(=O)(=O)NC2C(NC(=S)Nc3ccc(S(N)(=O)=O)cc3)OC(CO)C(O)C2O)cc1` [Compound 7a, N-[4-(Aminosulfonyl)phenyl]-N′-[2′-(4′-methylbenzenesulfonylamino)-2′-deoxy-β-D-glucopyranosyl]thiourea]: the melting point is 159.5 to 161.2 °C. Besides, in series [1], the IC50 turned out to be 21.8 ± 3.18 nM.

`Cc1ccccc1S(=O)(=O)N[C@@H]1[C@@H](O)[C@H](O)[C@@H](CO)O[C@H]1NC(=S)Nc1ccc(S(N)(=O)=O)cc1` [Compound 7b, N-[4-(Aminosulfonyl)phenyl]-N′-[2′-(2′-methylbenzenesulfonylamino)-2′-deoxy-β-D-glucopyranosyl]thiourea]: the melting point was in the range of 175.2 to 177.1 °C. The IC50 in series [1] worked out at 21.9 ± 0.37 nM.

`COc1ccc(S(=O)(=O)N[C@@H]2[C@@H](O)[C@H](O)[C@@H](CO)O[C@H]2NC(=S)Nc2ccc(S(N)(=O)=O)cc2)cc1` [Compound 7c, N-[4-(Aminosulfonyl)phenyl]-N′-[2′-(4′-methoxybenzenesulfonylamino)-2′-deoxy-β-D-glucopyranosyl]thiourea] registered a melting point of 165 to 166.3 °C. In addition, the IC50 in series [1] came to 23.8 ± 0.51 nM.

Turning to `NS(=O)(=O)c1ccc(NC(=S)N[C@@H]2O[C@H](CO)[C@@H](O)[C@H](O)[C@H]2NS(=O)(=O)c2ccc(F)cc2)cc1` [Compound 7d, N-[4-(Aminosulfonyl)phenyl]-N′-[2′-(4′-fluorobenzenesulfonylamino)-2′-deoxy-β-D-glucopyranosyl]thiourea], the melting point was 178 to 179.6 °C. The IC50 in series [1] came out at 25.6 ± 2.15 nM.

As to `NS(=O)(=O)c1ccc(NC(=S)N[C@@H]2O[C@H](CO)[C@@H](O)[C@H](O)[C@H]2NS(=O)(=O)c2cc(F)cc(F)c2)cc1` [Compound 7e, N-[4-(Aminosulfonyl)phenyl]-N′-[2′-(3′,5′-difluorobenzenesulfonylamino)-2′-deoxy-β-D-glucopyranosyl]thiourea], the melting point was in the range of 164.4 to 165.2 °C. The IC50 in series [1] stood at 11.5 ± 0.93 nM.

`NS(=O)(=O)c1ccc(NC(=S)NC2OC(CO)C(O)C(O)C2NS(=O)(=O)c2ccc(C(F)(F)F)cc2)cc1` [Compound 7f, N-[4-(Aminosulfonyl)phenyl]-N′-[2′-(4′-trifluoromethylbenzenesulfonylamino)-2′-deoxy-β-D-glucopyranosyl]thiourea] yielded a melting point of 164 to 165.4 °C. Further, the IC50 in series [1] was 10 ± 0.23 nM.

For the compound `NS(=O)(=O)c1ccc(NC(=S)N[C@@H]2O[C@H](CO)[C@@H](O)[C@H](O)[C@H]2NS(=O)(=O)c2ccc(Cl)cc2)cc1` [Compound 7g, N-[4-(Aminosulfonyl)phenyl]-N′-[2′-(4′-chlorobenzenesulfonylamino)-2′-deoxy-β-D-glucopyranosyl]thiourea], the melting point is 167.2 to 168.8 °C. Besides, in series [1], the IC50 worked out at 26.9 ± 0.28 nM.

On to `NS(=O)(=O)c1ccc(NC(=S)N[C@@H]2O[C@H](CO)[C@@H](O)[C@H](O)[C@H]2NS(=O)(=O)c2ccc(Br)cc2)cc1` [Compound 7h, N-[4-(Aminosulfonyl)phenyl]-N′-[2′-(4′-bromobenzenesulfonylamino)-2′-deoxy-β-D-glucopyranosyl]thiourea], for which the melting point lay in the range of 174.1 to 176 °C. Also, the IC50 in series [1] amounted to 21.3 ± 1.29 nM.

Turning to `NS(=O)(=O)c1ccc(NC(=S)N[C@@H]2O[C@H](CO)[C@@H](O)[C@H](O)[C@H]2NS(=O)(=O)c2cccc(Br)c2)cc1` [Compound 7i, N-[4-(Aminosulfonyl)phenyl]-N′-[2′-(3′-bromobenzenesulfonylamino)-2′-deoxy-β-D-glucopyranosyl]thiourea], the melting point fell in the range of 172.9 to 174.7 °C. In addition, the IC50 in series [1] is 12.6 ± 0.96 nM.

On to `NS(=O)(=O)c1ccc(NC(=S)N[C@@H]2O[C@H](CO)[C@@H](O)[C@H](O)[C@H]2NS(=O)(=O)c2ccc([N+](=O)[O-])cc2)cc1` [Compound 7j, N-[4-(Aminosulfonyl)phenyl]-N′-[2′-(4′-nitrobenzenesulfonylamino)-2′-deoxy-β-D-glucopyranosyl]thiourea], for which the melting point was in the range of 174.7 to 176 °C. For the same compound, in series [1], the IC50 stood at 25.4 ± 3.8 nM.

`NS(=O)(=O)c1ccc(NC(=S)N[C@@H]2O[C@H](CO)[C@@H](O)[C@H](O)[C@H]2NS(=O)(=O)c2ccccc2[N+](=O)[O-])cc1` [Compound 7k, N-[4-(Aminosulfonyl)phenyl]-N′-[2′-(2′-nitrobenzenesulfonylamino)-2′-deoxy-β-D-glucopyranosyl]thiourea] registered a melting point of 169.7 to 171.7 °C. Also, the IC50 in series [1] worked out at 15.6 ± 0.44 nM.

The compound `NS(=O)(=O)c1ccc(NC(=S)N[C@@H]2O[C@H](CO)[C@@H](O)[C@H](O)[C@H]2NS(=O)(=O)c2cccc([N+](=O)[O-])c2)cc1` [Compound 7l, N-[4-(Aminosulfonyl)phenyl]-N′-[2′-(3′-nitrobenzenesulfonylamino)-2′-deoxy-β-D-glucopyranosyl]thiourea] returned a melting point of 177.3 to 179.2 °C. The IC50 in series [1] is 18.9 ± 0.33 nM.

`N#Cc1ccc(S(=O)(=O)N[C@@H]2[C@@H](O)[C@H](O)[C@@H](CO)O[C@H]2NC(=S)Nc2ccc(S(N)(=O)=O)cc2)cc1` [Compound 7m, N-[4-(Aminosulfonyl)phenyl]-N′-[2′-(4′-cyanobenzenesulfonylamino)-2′-deoxy-β-D-glucopyranosyl]thiourea] gave a melting point of 169 to 170.6 °C. In addition, the IC50 in series [1] turned out to be 21.9 ± 0.49 nM.

The compound `NS(=O)(=O)c1ccc(NC(=S)N[C@@H]2O[C@H](CO)[C@@H](O)[C@H](O)[C@H]2NS(=O)(=O)c2ccc3ccccc3c2)cc1` [Compound 7n, N-[4-(Aminosulfonyl)phenyl]-N′-[2′-(naphthalene-2′-sulfonylamino)-2′-deoxy-β-D-glucopyranosyl]thiourea] registered a melting point of 182.7 to 184.6 °C. Also, in series [1], the IC50 stood at 24.78 ± 0.05 nM.

Compound `CCS(=O)(=O)N[C@@H]1[C@@H](O)[C@H](O)[C@@H](CO)O[C@H]1NC(=S)Nc1ccc(S(N)(=O)=O)cc1` [Compound 7o, N-[4-(Aminosulfonyl)phenyl]-N′-(2′-ethylsulfonylamino-2′-deoxy-β-D-glucopyranosyl)thiourea] had a melting point of 164.8 to 166.2 °C. In series [1], the IC50 was 66.9 ± 3.26 nM.

Turning to `CCCS(=O)(=O)NC1C(NC(=S)Nc2ccc(S(N)(=O)=O)cc2)OC(CO)C(O)C1O` [Compound 7p, N-[4-(Aminosulfonyl)phenyl]-N′-(2′-n-propylsulfonylamino-2′-deoxy-β-D-glucopyranosyl)thiourea], the melting point was 159.1 to 160.6 °C. Further, the IC50 in series [1] was 389 ± 27.7 nM.

In turn, `CN(C)S(=O)(=O)N[C@@H]1[C@@H](O)[C@H](O)[C@@H](CO)O[C@H]1NC(=S)Nc1ccc(S(N)(=O)=O)cc1` [Compound 7q, N-[4-(Aminosulfonyl)phenyl]-N′-[2′-(N′,N′-dimethylsulfonylamino)-2′-deoxy-β-D-glucopyranosyl]thiourea] had a melting point of 157.4 to 159.4 °C. In addition, the IC50 in series [1] came out at 72.1 ± 6.15 nM.

Take `NS(=O)(=O)c1ccc(NC(=S)N[C@@H]2O[C@H](CO)[C@@H](O)[C@H](O)[C@H]2NS(=O)(=O)c2cccs2)cc1` [Compound 7r, N-[4-(Aminosulfonyl)phenyl]-N′-[2′-(thiophene-2′-sulfonylamino)-2′-deoxy-β-D-glucopyranosyl]thiourea]: the melting point was 172.8 to 174 °C. In addition, the IC50 in series [1] came out at 65.8 ± 0.08 nM.

In turn, `CC(=O)NC1C(NC(=S)Nc2ccc(S(N)(=O)=O)cc2)OC(COC(C)=O)C(OC(C)=O)C1OC(C)=O` [Compound 9a, N-[4-(Aminosulfonyl)phenyl]-N′-(2′-acetylamino-3′,4′,6′-tri-O-acetyl-2′-deoxy-β-D-glucopyranosyl)thiourea] came in with a melting point of 141.8 to 142.9 °C. The IC50 in series [1] came to 1290 ± 141 nM.

`CC(=O)NC1C(NC(=S)Nc2ccc(S(N)(=O)=O)cc2)OC(CO)C(O)C1O` [Compound 9b, N-[4-(Aminosulfonyl)phenyl]-N′-(2′-acetylamino-2′-deoxy-β-D-glucopyranosyl)thiourea] registered a melting point of 151.1 to 152.9 °C. In addition, the IC50 in series [1] was 176 ± 9.45 nM.

For the compound `NS(=O)(=O)OCCCCCNS(=O)(=O)[C@@H]1O[C@H](CO)[C@@H](O)[C@H](O)[C@H]1O` [Compound A], in series [2], the “selectivity for CA IX over CA I” value is given as 1200 fold. The “selectivity for CA IX over CA II” value in series [3] is listed as 3200 fold.
